Laboratory results taken from a melting point compilation (Tetko et al.; mined from patent text by program, amines drawn as free bases though some values may be those of a salt).

| Structure (SMILES) | melting point [°C] |
| --- | --- |
| COCCO[C@H]1c2ccn3c(C)c(C)nc3c2N[C@@H](c2ccccc2)[C@@H]1O | 130 to 131 |
| CC(C)(NC(=O)C1=C(C(=O)Nc2cc(OC3CCCC3)c(Cl)cc2F)CCCC1)c1ccc(Br)cc1 | 214 to 216 |
| CCC(=O)N(CC)c1cccc(-c2ccc(Cl)nn2)c1 | 118 to 119 |
| N#Cc1ccc(C2NC(=O)Cc3ccccc32)cc1 (stereo not given) | 165 to 168 |
| CS(=O)(=O)c1ccc(C2=CC(=O)C3(CCOCC3)O2)cc1 | 163 to 165 |
| O=C1Nc2ccccc2C1C(=O)C(F)(F)F (stereo not given) | 184 |
| Cc1ccc(-c2c3c(cc4ccc(O)cc24)-c2ccc(O)cc2CO3)cc1F | 238 to 240 |
| Cn1c(-c2ccccn2)cc2onc(-c3ccccc3)c2c1=O | 160 to 162 |
| Cc1cc(C)c2nc(Nc3ccc(CN)cc3)n(Cc3nc(C)ccc3O)c2c1 | 255 |
| CS(=O)(=O)c1ccc(C(CC2CCCC2)C(=O)Nc2nccs2)cc1[N+](=O)[O-] (stereo not given) | 121 to 124 |
| COc1ccc2nc(Sc3ccc4c(c3)CC[C@H]3N(C)C(=O)CC[C@]43C)sc2c1 | 102 to 107 |
| COc1ccc(CN2C(=O)C[C@H]2[C@@H]2COC(C)(C)O2)c(OC)c1 | 85 to 86 |
| ON=C1CCc2c(cccc2OCC(O)CN2CCN(C(c3ccccc3)c3ccccc3)CC2)C1 (stereo not given) | 177 |
| Nc1nc2c(ncn2COC(CO)COC(=O)C2(N)CC2)c(=O)[nH]1 (stereo not given) | > 300 |
| OC1CSC(Oc2ccc(-c3cnccc3F)nc2-c2cnccc2F)C(O)C1O (stereo not given) | 209 |
| CCOC(=O)Cc1nnc2c(CC(C)C)nc(-c3ccccc3)cn12 | 105 to 107 |
| N#Cc1c(N2CCN(C(=O)c3cnccn3)CC2)c2ccccc2n(Cc2ccc(F)cc2)c1=O | 145 to 156 |
| O=C(N[C@H]1CSc2ccc(C(F)(F)F)cc2NC1=O)OCc1ccccc1 | 120 to 123 |
| Cc1ccc(S(=O)(=O)NC(=O)OCCc2ccc(-n3c(CCCc4ccccn4)nc4cc(C(F)(F)F)c(Cl)cc43)cc2)cc1 | 193 |
| Cn1c(C(F)(F)F)cc(=O)n(-c2ccc3snc(C(C)(C)C(=O)NS(C)(=O)=O)c3c2)c1=O | 264 to 265 |
| O=C(NCCCC1CC1)c1ccc(N2CCC(N3C(=O)C(F)(F)c4ccccc43)CC2)nn1 | 51 to 53 |
| CCOc1c(-c2nnn[nH]2)oc2c3ccccc3n(-c3ccccc3)c12 | 189 to 192 |
| Cc1noc(NS(=O)(=O)c2cccs2)c1Br | 125 to 127 |
| CCN1CN(c2cccc(C(F)(F)F)c2)c2ncccc2C1=O | 108 to 109 |

| Structure (SMILES) | melting point [°C] |
| --- | --- |
| CCOc1ccc(N(c2ccccc2)C2(c3ccc(N(CC)Cc4ccccc4)cc3)OC(=O)c3cc(N(C)C)ccc32)cc1 (stereo not given) | 148 to 152 |
| Cc1c(-c2ccccc2)oc2c(C(=O)NCCCO)cccc2c1=O | 191 to 193 |
| COc1cc(CN/C=C2\C(=O)NC(=O)c3ccc(-c4ccc(Oc5ccccc5)cc4)cc32)cc(O)c1OC | 240 to 241 |
| COc1ccc(-c2nc(C(F)F)oc2-c2ccc(OCCO)cc2)cc1 | 114 to 116 |
| Cc1oc(-c2ccccc2)nc1COc1ccc2cc(CCCCC#N)oc2c1 | 87 to 88 |
| CCOC(=O)c1cc(CC)sc1Nc1ccc(Br)cc1[N+](=O)[O-] | 76 to 78 |
| CCCn1c(OCC2CC2(Cl)Cl)nc2sccc2c1=O (stereo not given) | 64 to 66 |
| CCc1nnc2c(NC)nc3ccccc3n12 | 271 to 273 |
| CC(c1oc2ccccc2c(=O)c1-c1cccc(F)c1)n1nc(-c2csc3ccccc23)c2c(N)ncnc21 (stereo not given) | 226 to 229 |
| COc1ncc(C(F)(F)F)cc1-c1cccn2nc(Nc3ccc(C4CCN(CC(=O)N(C)C)CC4)cc3)nc12 | 122 to 124 |
| C=CCC1(C)OC(=O)Nc2ccc(-c3cccc(Cl)c3)cc21 (stereo not given) | 128 to 129 |
| CC(Cc1cccc(N)c1)NC=O (stereo not given) | 107 to 108 |
| CCc1nc2c(-c3ccc(Cl)cc3Cl)nnc(C)c2n1C(CC)CC | 63 to 64 |
| COc1ccc2[nH]c3cc(C(=O)O)c4c(c3c2c1)C(=O)NC4=O | > 300 |
| Cc1cc2c3c(c1)NC(=O)c1ccccc1N3CC2 | 222 to 224 |
| CNC(=O)CCC(=O)c1c(OC)cccc1OC | 134 |
| CC1SC(=O)NN=C1c1ccc2c(c1)C(=NNC1CCCCC1)C(=O)N2 (stereo not given) | 217 |
| CNC(=O)c1ccc(O[C@H]2CC[C@@H](NC(=O)Nc3ccc(OC(F)(F)F)cc3)CC2)cc1 | 207 to 208 |
| Cc1ccc(Cl)cc1N1CN(C)CNC1=S | 171 to 173 |
| CCc1cc2c(NC(C)c3ccccc3)ncnc2s1 (stereo not given) | 141 |
| COc1nc(Cl)cnc1NS(=O)(=O)c1cccc(F)c1Cl | 159 to 160 |
| COc1ccc(C2CCC(OC(C)=O)CC2NC(=O)c2ccc(OCC3CC3)c(OCC3CC3)c2)cc1OC (stereo not given) | 90 to 95 |
| O=C(CCc1oc(-n2cnc3ccccc32)nc1-c1ccc(Cl)cc1)N1CCS(=O)(=O)C1 | 136 to 137 |
| COc1ccc(-c2nnn(-c3ccc(C(F)(F)F)cc3Cl)c2CBr)cc1 | 152 to 154 |

| Structure (SMILES) | melting point [°C] |
| --- | --- |
| COc1ccc([C@@H]2O[C@H]2C(=O)O[C@@H]2CCCC[C@H]2c2ccccc2)cc1 | 146 to 148 |
| COc1ccc(-c2nc3cc(Cl)c(Cl)cc3[nH]2)cc1N | > 300 |
| CC(C)n1nc(-c2c(-c3ccccc3)nn3ccc(OCCN4CC4)cc23)ccc1=O | 159 to 160 |
| COc1nc2c(Cl)cccc2s1 | 55 to 57 |
| COCc1cnc2c(NC(=O)c3ccccc3[N+](=O)[O-])cccc2c1N1CCN(C)C1=O | 156 to 159 |
| COC(=O)c1nc(CN(C)C)n(-c2ccc(Cl)cc2C(=O)c2ccccc2)n1 | 118 to 121 |
| O=S1(=O)c2cccc3cccc(c23)N1CCCN1CCN(c2ccccc2F)CC1 | 112 |
| O=C(Nc1nc2ccccc2s1)c1ccccc1C(c1ccc(O)cc1)c1ccc(O)cc1 | 140 to 141 |
| COc1cc2c(Cl)c(C#N)cnc2cc1F | 160 to 162 |
| Cc1ccc(OC(=O)C=Cc2ccccc2)c(C(=O)O)c1 | 162 |
| Cc1ccc(-c2n[nH]c3ccccc23)cc1 | 106 to 107 |
| COc1c(F)cccc1C(=O)Cl | 71 to 73 |
| CC(=O)c1cccc(C=CC(=O)N2CCc3c([nH]c4ccccc34)C2c2ccc3c(c2)OCO3)c1 (stereo not given) | 191 |
| CC1=CC(c2ccccc2)C(c2cccs2)=NN1 (stereo not given) | 150 |
| CCN(C(=O)c1ccc2nonc2c1)C1CCOCC1 | 102 to 104 |
| Cc1nc(OCCO)c(C#N)c(N2CCc3ccccc3CC2)n1 | 86.7 to 92.3 |
| CC(C)(C)OC(=O)n1ccc2cnccc21 | 65 |
| CCc1nc(N)nc(N)c1-c1ccc(NCCc2ccccc2)c([N+](=O)[O-])c1 | 222 to 225 |
| O=C(Nc1ccc(Oc2ccnc(NC3CCC3)n2)c2ccccc12)c1cc(F)cc(N2CCCCC2)c1 | 112 to 114 |
| C#Cc1ccc2c(c1)c1cc(-c3ccc(Cl)cc3Cl)c(=O)n(C)c1n2C | 184 to 185 |
| COC[C@@H](OC)[C@@H](OC)[C@H](OC)[C@H](CN(C)C(=O)c1ccc2n1Cc1ccccc1N(C(=O)c1ccc(C3=CCCCC3)c(C)c1)C2)OC | 68 to 83 |
| COc1ccc2c(c1)N(CC(=O)O)C(=O)C(N)CC2 (stereo not given) | > 300 |
| C#Cc1ccc(OC)c(C#N)c1 | 100 to 101 |
| CCCCCC1CCc2cc(C(=O)Oc3ccc(C#N)cc3)ccc2C1 (stereo not given) | 72.7 to 73.3 |

| Structure (SMILES) | melting point [°C] |
| --- | --- |
| COc1ccc2c(c1)c1c3c(c(-c4c(Cl)cccc4Cl)cc1n2CCC(=O)O)C(=O)NC3=O | 203 to 209 |
| CC(=O)NC[C@H]1CN(c2ccc(C3=CCN(c4nnc(C)s4)CC3)c(F)c2)C(=O)O1 | 193 to 195 |
| CNC(=O)Oc1cc(C)c(NC(=O)C(F)(F)Cl)c(C)c1 | 163 to 165 |
| CCOC(=O)C(=CC=C(SC)C(=O)c1ccc(Br)cc1)N(C)C | 107 |
| C=CC(=O)N1CCc2cc(OC)c(OC)cc2C12CCC(C(=O)OCC)(C(=O)OCC)CC2 | 131 to 134 |
| COC(=O)CCSc1cc(C(C)(C)C)c(O)c(C(C)(C)C)c1 | 63.5 to 65.5 |
| CCN1CC(N(CCN2CCCC2)S(=O)(=O)c2ccc(Nc3nccc(Nc4ccc(F)c(C)c4)n3)cc2)C1 | 195 |
| O=C(O)Cc1c(-c2ccccc2)nn(C2CCCCC2)c1-c1ccccc1 | 229 to 231 |
| CC(C)(C)OC(=O)Cn1cc(C[C@@H](N)C(=O)O)c2ccccc21 | 260 |
| N#CC(C(=O)Nc1cccc(F)c1)C(=O)c1nn(-c2ccccc2)c2c1Cc1ccccc1-2 (stereo not given) | 278 to 284 |
| NS(=O)(=O)c1ccc(-n2nc(C(F)(F)F)cc2-c2nc3ccccc3s2)cc1 | 254 to 256 |
| CCCCc1cn2ccccc2c1S(=O)(=O)c1ccc(OCCCBr)cc1 | 119 |
| CN(C)c1ccc(C2(CNC(=O)Nc3c(F)cc(F)cc3CCc3cc(C(C)(C)C)c(O)c(C(C)(C)C)c3)CCCC2)cc1 | 165 to 166 |
| CS(=O)(=O)Nc1ccc(Cl)cc1C(=Cc1ccc2ccccc2c1)C(N)=O | 179 to 184 |
| C=CCc1cc(C=CNC(=O)OC)ccc1OCC(O)CNC(C)C (stereo not given) | 128 to 129 |
| COc1cccc2c1nc(Cl)n2C | 118 to 119 |
| CCN(CC)C(=CC(=O)OC)N1C(=O)C(=[N+]=[N-])c2ccccc21 | 175 to 177 |
| CCOC(=O)c1c(Cl)nc(-c2cccc([N+](=O)[O-])c2)c([N+](=O)[O-])c1C(=O)OCC | 90 to 91 |
| COC(=O)c1ccc(-c2nc(-c3ccc(Cl)cc3)cs2)cc1 | 186 to 187 |
| Cc1nc(-c2ccc(=O)n(C(C)C)n2)c(-c2ccccc2)nc1O | > 250 |
| Cc1c(COc2cccc3cc(NS(=O)(=O)C(F)(F)F)ccc23)cccc1-c1ccccc1 | 124 to 125 |
| C[C@@H](n1ccnc1)C(O)(c1ccc(Cl)cc1)c1ccc(Cl)cc1 | 159 to 161 |
| Cn1ncnc1COc1nc2c(-c3ccc(F)cc3)nncn2c1-c1ccccc1 | 130 |
